According to patent US20230057359A1, “NOVEL USE OF STEVIOL” (SUNTORY HOLDINGS LIMITED, priority 2019, published 2023):

How the values were obtained:
[1] = tested on: normal human subcutaneous preadipocytes differentiated into adipocytes; test: Fat accumulation test in adipocytes (oil red staining); type: cell-based; conditions: for Relative fat accumulation level (%): 10 days, DMSO=100%
Experimental: Normal human subcutaneous preadipocytes were precultured using the growth medium in the same manner as in Example 1. The cells were detached using 0.25% trypsin-EDTA, seeded at 10,000 cells/100 μL/well to a 96-well plate using a growth medium, and cultured overnight in a CO2 incubator. On the next day, the medium was replaced with 100 μL of a differentiation medium supplemented with varying concentrations of steviol (12.5, 25, 50, 100 or 200 μg/mL, dissolved in 0.1% DMSO (final concentration)). The cells were cultured for 10 days in a CO2 incubator to induce their differentiation into adipocytes. On the fourth and seventh days after the differentiation induction, the medium was replaced with a fresh medium (100 μL) having the same composition as above. A differentiation medium supplemented with 25 mM LiCl (Cat. No. SML0559, Sigma-Aldrich Co., LLC) was used as a positive control, and a differentiation medium supplemented with 0.1% DMSO (final concentration) was used as a negative control. Cells cultured in a growth medium were used as an untreated control (Untreated). The cells thus cultured were subjected to oil red staining. Specifically, the cells were washed twice with 100 μL of DPBS (Cat. No. 14190250, Thermo Fisher Scientific Inc.). Then, the cells were fixed (room temperature, 10 min) in 100 μL of a 10% formalin solution (Cat. No. 061-00416, FUJIFILM Wako Pure Chemical Corp.). The cells were washed twice with 100 μL of DPBS, then incubated for 1 minute in 100 μL of 60% 2-propanol (Cat. No. 166-04836, FUJIFILM Wako Pure Chemical Corp.) that replaced the medium, and stained for 15 minutes in 100 μL of an oil red staining solution (Cat. No. 00625, Sigma-Aldrich Co., LLC) that replaced the 2-propanol solution. The cells were washed once with 100 μL of 60% 2-propanol and washed twice with 100 μL of DPBS. Then, cell images were taken in 100 μL of DPBS. After subsequent replacement with 120 μL of 100% 2-propanol, oil red was extracted by incubation for 5 minutes, and 100 μL of the extracts was transferred to each well of a fresh 96-well plate. Absorbance (520 nm) was measured using a plate reader (VARIOSKAN FLASH, Thermo Fisher Scientific Inc.), and a relative fat accumulation level was calculated. Significant difference of differentiation non-induced group vs differentiation induced group (negative control group) was tested (two-tailed), and P<0.05 was regarded as having significant difference. Also, significant difference of negative control group vs steviol addition group/positive control group was tested (two-tailed) by the Dunnett test, and P<0.05 was regarded as having significant difference.

[2] = tested on: HepG2 cells; test: Fat accumulation test in hepatocytes (oil red staining, oleic acid); type: cell-based; conditions: for Relative fat accumulation level (%): 0.2 mM oleic acid, 24 hours, DMSO=100%
Experimental: Normal human subcutaneous preadipocytes were precultured using the growth medium in the same manner as in Example 1. The cells were detached using 0.25% trypsin-EDTA, seeded at 10,000 cells/100 μL/well to a 96-well plate using a growth medium, and cultured overnight in a CO2 incubator. On the next day, the medium was replaced with 100 μL of a differentiation medium supplemented with varying concentrations of steviol (12.5, 25, 50, 100 or 200 μg/mL, dissolved in 0.1% DMSO (final concentration)). The cells were cultured for 10 days in a CO2 incubator to induce their differentiation into adipocytes. On the fourth and seventh days after the differentiation induction, the medium was replaced with a fresh medium (100 μL) having the same composition as above. A differentiation medium supplemented with 25 mM LiCl (Cat. No. SML0559, Sigma-Aldrich Co., LLC) was used as a positive control, and a differentiation medium supplemented with 0.1% DMSO (final concentration) was used as a negative control. Cells cultured in a growth medium were used as an untreated control (Untreated). The cells thus cultured were subjected to oil red staining. Specifically, the cells were washed twice with 100 μL of DPBS (Cat. No. 14190250, Thermo Fisher Scientific Inc.). Then, the cells were fixed (room temperature, 10 min) in 100 μL of a 10% formalin solution (Cat. No. 061-00416, FUJIFILM Wako Pure Chemical Corp.). The cells were washed twice with 100 μL of DPBS, then incubated for 1 minute in 100 μL of 60% 2-propanol (Cat. No. 166-04836, FUJIFILM Wako Pure Chemical Corp.) that replaced the medium, and stained for 15 minutes in 100 μL of an oil red staining solution (Cat. No. 00625, Sigma-Aldrich Co., LLC) that replaced the 2-propanol solution. The cells were washed once with 100 μL of 60% 2-propanol and washed twice with 100 μL of DPBS. Then, cell images were taken in 100 μL of DPBS. After subsequent replacement with 120 μL of 100% 2-propanol, oil red was extracted by incubation for 5 minutes, and 100 μL of the extracts was transferred to each well of a fresh 96-well plate. Absorbance (520 nm) was measured using a plate reader (VARIOSKAN FLASH, Thermo Fisher Scientific Inc.), and a relative fat accumulation level was calculated. Significant difference of differentiation non-induced group vs differentiation induced group (negative control group) was tested (two-tailed), and P<0.05 was regarded as having significant difference. Also, significant difference of negative control group vs steviol addition group/positive control group was tested (two-tailed) by the Dunnett test, and P<0.05 was regarded as having significant difference. […] HepG2 cells were precultured using the growth medium in the same manner as in Example 5. The cells were detached using 0.25% trypsin-EDTA, seeded at 30,000 cells/100 μL/well to a 96-well plate using the growth medium, and cultured overnight in a CO2 incubator. On the next day, the medium was replaced with 100 μL of a test medium (DMEM (high glucose) supplemented with 0.2 mM oleic acid (Cat. No. 03008, Sigma-Aldrich), 10% FBS and 1% penicillin-streptomycin) supplemented with varying concentrations of steviol (12.5, 25, 50, 100 or 200 μg/mL, dissolved in 0.1% DMSO (final concentration)). The cells were cultured for 24 hours in a CO2 incubator. A test medium supplemented with 2 mM metformin (Cat. No. M2009, Tokyo Chemical Industry Co., Ltd.) was used as a positive control (Metformin), and a vehicle control composed of a test medium supplemented with 0.1% DMSO (final concentration) was used as a negative control (DMSO). Cells cultured in a test medium containing no oleic acid was used as an untreated control (Untreated). The cells thus cultured were subjected to oil red staining in the same manner as in Example 3, followed by photographing and calculation of a relative fat accumulation level. […]

C=C1C[C@@]23CC[C@H]4[C@@](C)(CCC[C@@]4(C)C(=O)O)[C@@H]2CC[C@]1(O)C3 [Steviol, steviol]
fat accumulation in adipocytes (in words) ([1]; 12.5 to 200 μg/mL): suppressed fat accumulation in adipocytes in a concentration-dependent manner | Relative fat accumulation level (%) ([1]; steviol 12.5 μg/mL): 98.3% | Relative fat accumulation level (%) ([1]; steviol 25 μg/mL): 91.3% | Relative fat accumulation level (%) ([1]; steviol 50 μg/mL): 80.7% | Relative fat accumulation level (%) ([1]; steviol 100 μg/mL): 70.8% | Relative fat accumulation level (%) ([1]; steviol 200 μg/mL): 40.0% | fat accumulation in HepG2 test (in words) ([2]; 12.5 to 200 μg/mL): suppressed fat accumulation in adipocytes in a concentration-dependent manner | Relative fat accumulation level (%) ([2]; steviol 12.5 μg/mL): 98.9% | Relative fat accumulation level (%) ([2]; steviol 25 μg/mL): 98.1% | Relative fat accumulation level (%) ([2]; steviol 50 μg/mL): 86.4% | Relative fat accumulation level (%) ([2]; steviol 100 μg/mL): 85.6% | Relative fat accumulation level (%) ([2]; steviol 200 μg/mL): 83.0%
